For 13 compounds, melting point and IC50 results are on record in patent US7064144B2, “Imidazole derivatives as adenosine deaminase inhibitors” (Astellas Pharma Inc., priority 2001, dated 2006).

In general, melting point refers to the temperature of the solid-liquid transition. The term IC50 denotes the concentration that gives 50% inhibition. A high value points to a need for much substance.

Bounds are passed on as bounds.

The target in one series is T1, Human ADA (Homo sapiens, UniProt P00813).
T1 construct: made in house
T1 sequence (P00813 1-363): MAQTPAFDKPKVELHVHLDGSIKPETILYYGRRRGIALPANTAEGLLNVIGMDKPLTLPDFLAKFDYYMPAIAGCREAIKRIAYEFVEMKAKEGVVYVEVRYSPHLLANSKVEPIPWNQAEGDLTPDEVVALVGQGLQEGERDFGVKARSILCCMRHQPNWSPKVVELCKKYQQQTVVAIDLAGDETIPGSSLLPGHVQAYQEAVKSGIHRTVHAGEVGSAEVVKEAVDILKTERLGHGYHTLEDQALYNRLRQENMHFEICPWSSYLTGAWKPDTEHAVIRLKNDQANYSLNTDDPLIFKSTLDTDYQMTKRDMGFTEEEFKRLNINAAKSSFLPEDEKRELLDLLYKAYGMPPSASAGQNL
The experiment in a line: Adenosine Deaminase (ADA) Enzyme Assay. In kind it is biochemical. The following applies: 50% inhibition of Vmax vs vehicle; 0.16 μg/ml ADA, 0.1 mM adenosine, 10 mM phosphate buffer saline pH 7.4, room temperature, A265. From the text:
Adenosine Deaminase (ADA) Enzyme Assay
• 1-[(2S,3R)-5-(1,1′-biphenyl-3-yloxy)-2-hydroxy-3-pentyl]imidazole-4-carboxamide (Example 20) • 1-{(2S,3R)-2-hydroxy-5-[3-(2-thienyl)phenoxy]-3-pentyl}imidazole-4-carboxamide (Example 32) • 1-[(2S,3R)-2-hydroxy-5-(2-quinolyloxy)-3-pentyl]imidazole-4-carboxamide (Example 49) • 1-[(2S,3R)-2-hydroxy-5-(2-naphthylthio)-3-pentyl]imidazole-4-carboxamide (Example 76) • 1-[(2S,3R)-2-hydroxy-5-(2-quinolylthio)-3-pentyl]imidazole-4-carboxamide (Example 78) Test Method:
The reaction velocity (V) is measured by a change in absorbance at 265 nm (A265) resulting from the deamination of adenosine. Human ADA was expressed and purified from ADA-deficient bacterial strain. Reaction mixtures of a total volume of 200 μl contained 0.16 μg/ml of ADA and 0.1 mM of adenosine and test compound in 10 mM phosphate buffer saline (pH 7.4). The reaction was started by addition of ADA to a mixture of adenosine and test compound. The reaction was followed at room temperature by recording decrease in A265 for 3 minutes in SPECTRAmax 250 (Molecular Devices, USA) to automatically calculate Vmax. Inhibitory potency of test compound was expressed as IC50 value, the drug concentration required to produce 50% inhibition of Vmax in comparison to vehicle treatment.

On to `C[C@H](O)[C@H](CSc1cccc2ccccc12)n1cnc(C(N)=O)c1.Cl`, for which the melting point was > 168 °C (dec.).

In the case of `C[C@H](O)[C@@H](CCOc1cccc(-c2ccccc2)c1)n1cnc(C(N)=O)c1` [Example 20, 1-[(2S,3R)-5-(1,1′-biphenyl-3-yloxy)-2-hydroxy-3-pentyl]imidazole-4-carboxamide], on Human ADA, the IC50 is under 20 nM. For `C[C@H](O)[C@@H](CCOc1ccc(-c2ccccc2)cc1)n1cnc(C(N)=O)c1` [Example 28, 1-[(2S,3R)-5-(1,1′-biphenyl-4-yloxy)-2-hydroxy-3-pentyl]imidazole-4-carboxamide], the melting point lay in the range of 191 to 193 °C. Compound `C[C@H](O)[C@@H](CCOc1cccc(-c2cccs2)c1)n1cnc(C(N)=O)c1` [Example 32, 1-{(2S,3R)-2-hydroxy-5-[3-(2-thienyl)phenoxy]-3-pentyl}imidazole-4-carboxamide] displayed an IC50 against Human ADA of under 20 nM.

In the case of `C[C@H](O)[C@@H](CCOc1ccc2ccccc2n1)n1cnc(C(N)=O)c1` [Example 49, 1-[(2S,3R)-2-hydroxy-5-(2-quinolyloxy)-3-pentyl]imidazole-4-carboxamide], the IC50 against Human ADA is under 20 nM. `C[C@H](O)[C@@H](CCOc1ccc2c(ccn2C)c1)n1cnc(C(N)=O)c1` [Example 75, 1-[(2S,3R)-2-hydroxy-5-(1-methyl-1H-indol-5-yloxy)-3-pentyl]imidazole-4-carboxamide] returned a melting point of 211 to 213.5 °C. Regarding `C[C@H](O)[C@@H](CCSc1ccc2ccccc2c1)n1cnc(C(N)=O)c1` [Example 76, 1-[(2S,3R)-2-hydroxy-5-(2-naphthylthio)-3-pentyl]imidazole-4-carboxamide], on Human ADA, the half-maximal inhibitory concentration (IC50) is under 20 nM. Still for that read-out and setting: the figure for `C[C@H](O)[C@@H](CCSc1ccc2ccccc2n1)n1cnc(C(N)=O)c1` [Example 78, 1-[(2S,3R)-2-hydroxy-5-(2-quinolylthio)-3-pentyl]imidazole-4-carboxamide] is under 20 nM.

In the case of `C[C@H](O)[C@@H](COc1ccc(Cl)c(Cl)c1)n1cnc(C(N)=O)c1` [Example 81, 1-{(1R,2S)-1-[(3,4-dichlorophenoxy)methyl]-2-hydroxypropyl}-1H-imidazole-4-carboxamide], the melting point fell in the range of 115 to 121 °C.

As to `C[C@H](O)[C@@H](CCOc1cccc(-c2ccc(Cl)nc2)c1)n1cnc(C(N)=O)c1` [Example 87, 1-{(2S,3R)-5-[3-(6-chloro-3-pyridyl)phenoxy]-2-hydroxy-3-pentyl}imidazole-4-carboxamide], the melting point is 166 to 168 °C. For `C[C@H](O)[C@@H](CCOc1ccc2ccc(Cl)cc2c1)n1cnc(C(N)=O)c1` [Example 97, 1-[(2S,3R)-5-(7-chloro-2-naphthyloxy)-2-hydroxy-3-pentyl]imidazole-4-carboxamide], the melting point lay in the range of 139 to 141 °C. Consider `C[C@H](O)[C@H](CSc1ccc2ccccc2c1)n1cnc(C(N)=O)c1` [Example 102, 1-{(1R,2S)-2-hydroxy-1-[(2-naphthylthio)methyl]propyl}-1H-imidazole-4-carboxamide], for which the melting point is > 108 °C (dec.). On the same count and under the same terms, the figure for `C[C@H](O)[C@H](CSc1cccc(Cl)c1Cl)n1cnc(C(N)=O)c1` [Example 104, 1-{(1R,2S)-1-{[(2,3-dichlorophenyl)thio]methyl}-2-hydroxypropyl}-1H-imidazole-4-carboxamide] is > 120 °C (dec.).
